Data published in US6825170B2, “6-O-acyl ketolide antibacterials” (Ortho-McNeil Pharmaceutical, Inc., priority 2001, dated 2004).
In brackets after ≈: the same amount, converted by molar mass.

What was measured:
Test in all cases: MIC, microdilution broth method (NCCLS)
Assay type in all cases: cell-based
Details in all cases: 35° C., 16-20 hours
E. coli OC2605 = system: E. coli OC2605
In short: (§1)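 Two-fold serial drug dilutions in cation-adjusted Mueller-Hinton broth were inoculated with actively growing cultures to about 5×10^4 CFU/well. Trays were incubated 16-20 hours at 35° C. MIC was read by comparing growth against drug-free growth-control wells.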

E. faecalis ATCC29212 = system: E. faecalis ATCC29212
In short: as §1

H. influenzae ATCC49247 = system: H. influenzae ATCC49247
In short: as §1

S. aureus ATCC29213 = system: S. aureus ATCC29213
In short: as §1

S. pneumoniae ATCC49619 = system: S. pneumoniae ATCC49619
In short: as §1

**Q.** For `CC[C@H]1OC(=O)[C@H](C)C(=O)[C@H](C)[C@@H](O[C@@H]2O[C@H](C)C[C@H](N(C)C)[C@H]2O)[C@](C)(OC(=O)NNCc2ccc(-c3cccnn3)cc2)C[C@@H](C)C(=O)[C@H](C)[C@H]2NC(=O)O[C@@]21C` [Compound 675], which “MIC (A: E. coli OC2605)” value (E. coli OC2605) is on record?
**A.** 16 µg/mL (≈ 19.4 µM)

**Q.** And the “MIC (C: E. faecalis ATCC29212)” value (E. faecalis ATCC29212)?
**A.** 0.12 µg/mL (≈ 0.145 µM)

**Q.** And the “MIC (E: H. influenzae ATCC49247)” value (H. influenzae ATCC49247)?
**A.** 2 µg/mL (≈ 2.42 µM)

**Q.** What about the “MIC (B: S. aureus ATCC29213)” value (S. aureus ATCC29213) of the same molecule?
**A.** 0.5 µg/mL (≈ 0.606 µM)

**Q.** And the “MIC (D: S. pneumoniae ATCC49619)” value (S. pneumoniae ATCC49619)?
**A.** 0.06 µg/mL (≈ 0.0727 µM)

**Q.** Which results are given for `CC[C@H]1OC(=O)[C@H](C)C(=O)[C@H](C)[C@@H](O[C@@H]2O[C@H](C)C[C@H](N(C)C)[C@H]2O)[C@](C)(OC(=O)NNCc2ccc(-c3ncccn3)cc2)C[C@@H](C)C(=O)[C@H](C)[C@H]2NC(=O)O[C@@]21C` [Compound 676]?
**A.** MIC (A: E. coli OC2605) (E. coli OC2605): 8 µg/mL (≈ 9.7 µM); MIC (C: E. faecalis ATCC29212) (E. faecalis ATCC29212): 0.12 µg/mL (≈ 0.145 µM); MIC (E: H. influenzae ATCC49247) (H. influenzae ATCC49247): 4 µg/mL (≈ 4.85 µM); MIC (B: S. aureus ATCC29213) (S. aureus ATCC29213): 0.25 µg/mL (≈ 0.303 µM); MIC (D: S. pneumoniae ATCC49619) (S. pneumoniae ATCC49619): 0.03 µg/mL (≈ 0.0364 µM)

**Q.** Which results are given for `CC[C@H]1OC(=O)[C@H](C)C(=O)[C@H](C)[C@@H](O[C@@H]2O[C@H](C)C[C@H](N(C)C)[C@H]2O)[C@](C)(OC(=O)NN(C)C/C=C/c2ccc(-c3ncccn3)cc2)C[C@@H](C)C(=O)[C@H](C)[C@H]2NC(=O)O[C@@]21C` [Compound 744]?
**A.** MIC (A: E. coli OC2605) (E. coli OC2605): >16 µg/mL; MIC (C: E. faecalis ATCC29212) (E. faecalis ATCC29212): 0.25 µg/mL (≈ 0.289 µM); MIC (E: H. influenzae ATCC49247) (H. influenzae ATCC49247): 8 µg/mL (≈ 9.25 µM); MIC (B: S. aureus ATCC29213) (S. aureus ATCC29213): 0.25 µg/mL (≈ 0.289 µM); MIC (D: S. pneumoniae ATCC49619) (S. pneumoniae ATCC49619): 0.03 µg/mL (≈ 0.0347 µM)

**Q.** With `CC[C@H]1OC(=O)[C@H](C)C(=O)[C@H](C)[C@@H](O[C@@H]2O[C@H](C)C[C@H](N(C)C)[C@H]2O)[C@](C)(OC(=O)NN(C)Cc2ccc(-c3ncccn3)cc2)C[C@@H](C)C(=O)[C@H](C)[C@H]2NC(=O)O[C@@]21C` [Compound 774] as the molecule, how does the “MIC (A: E. coli OC2605)” value (E. coli OC2605) read?
**A.** >16 µg/mL

**Q.** What about the “MIC (C: E. faecalis ATCC29212)” value (E. faecalis ATCC29212) of the same molecule?
**A.** 0.25 µg/mL (≈ 0.298 µM)

**Q.** What about the “MIC (E: H. influenzae ATCC49247)” value (H. influenzae ATCC49247) of the same molecule?
**A.** 4 µg/mL (≈ 4.77 µM)

**Q.** And the “MIC (B: S. aureus ATCC29213)” value (S. aureus ATCC29213)?
**A.** 2 µg/mL (≈ 2.38 µM)

**Q.** What about the “MIC (D: S. pneumoniae ATCC49619)” value (S. pneumoniae ATCC49619) of the same molecule?
**A.** 0.06 µg/mL (≈ 0.0715 µM)

**Q.** Which “MIC (A: E. coli OC2605)” value (E. coli OC2605) does the source give for `CC[C@H]1OC(=O)[C@H](C)C(=O)[C@H](C)[C@@H](O[C@@H]2O[C@H](C)C[C@H](N(C)C)[C@H]2O)[C@](C)(OC(=O)NN(C)CCc2ccc(-c3ncccn3)cc2)C[C@@H](C)C(=O)[C@H](C)[C@H]2NC(=O)O[C@@]21C` [Compound 803] here?
**A.** >16 µg/mL

**Q.** And the “MIC (C: E. faecalis ATCC29212)” value (E. faecalis ATCC29212)?
**A.** 0.12 µg/mL (≈ 0.141 µM)

**Q.** And the “MIC (E: H. influenzae ATCC49247)” value (H. influenzae ATCC49247)?
**A.** 4 µg/mL (≈ 4.69 µM)

**Q.** What about the “MIC (B: S. aureus ATCC29213)” value (S. aureus ATCC29213) of the same molecule?
**A.** 0.25 µg/mL (≈ 0.293 µM)

**Q.** And the “MIC (D: S. pneumoniae ATCC49619)” value (S. pneumoniae ATCC49619)?
**A.** 0.03 µg/mL (≈ 0.0352 µM)

**Q.** With `CC[C@H]1OC(=O)[C@H](C)C(=O)[C@H](C)[C@@H](O[C@@H]2O[C@H](C)C[C@H](N(C)C)[C@H]2O)[C@](C)(OC(=O)NN(CC)CCc2ccc(-c3ncccn3)cc2)C[C@@H](C)C(=O)[C@H](C)[C@H]2NC(=O)O[C@@]21C` [Compound 804] as the molecule, how does the “MIC (A: E. coli OC2605)” value (E. coli OC2605) read?
**A.** >16 µg/mL

**Q.** And the “MIC (C: E. faecalis ATCC29212)” value (E. faecalis ATCC29212)?
**A.** 0.12 µg/mL (≈ 0.138 µM)

**Q.** What about the “MIC (E: H. influenzae ATCC49247)” value (H. influenzae ATCC49247) of the same molecule?
**A.** 8 µg/mL (≈ 9.23 µM)

**Q.** What about the “MIC (B: S. aureus ATCC29213)” value (S. aureus ATCC29213) of the same molecule?
**A.** 0.5 µg/mL (≈ 0.577 µM)

**Q.** And the “MIC (D: S. pneumoniae ATCC49619)” value (S. pneumoniae ATCC49619)?
**A.** 0.03 µg/mL (≈ 0.0346 µM)

**Q.** How did the “MIC (A: E. coli OC2605)” value (E. coli OC2605) turn out when `CC[C@H]1OC(=O)[C@H](C)C(=O)[C@H](C)[C@@H](O[C@@H]2O[C@H](C)C[C@H](N(C)C)[C@H]2O)[C@](C)(OC(=O)NNC/C=C/c2ccc(-c3ncccn3)cc2)C[C@@H](C)C(=O)[C@H](C)[C@H]2NC(=O)O[C@@]21C` [Compound 805] was run?
**A.** 16 µg/mL (≈ 18.8 µM)

**Q.** What about the “MIC (C: E. faecalis ATCC29212)” value (E. faecalis ATCC29212) of the same molecule?
**A.** 0.25 µg/mL (≈ 0.294 µM)

**Q.** And the “MIC (E: H. influenzae ATCC49247)” value (H. influenzae ATCC49247)?
**A.** 2 µg/mL (≈ 2.35 µM)

**Q.** And the “MIC (B: S. aureus ATCC29213)” value (S. aureus ATCC29213)?
**A.** 0.25 µg/mL (≈ 0.294 µM)

**Q.** What about the “MIC (D: S. pneumoniae ATCC49619)” value (S. pneumoniae ATCC49619) of the same molecule?
**A.** 0.06 µg/mL (≈ 0.0705 µM)

**Q.** How did the “MIC (A: E. coli OC2605)” value (E. coli OC2605) turn out when `CC[C@H]1OC(=O)[C@H](C)C(=O)[C@H](C)[C@@H](O[C@@H]2O[C@H](C)C[C@H](N(C)C)[C@H]2O)[C@](C)(OC(=O)NN(C/C=C/c2ccc(-c3ncccn3)cc2)C/C=C/c2ccc(-c3ncccn3)cc2)C[C@@H](C)C(=O)[C@H](C)[C@H]2NC(=O)O[C@@]21C` [Compound 806] was run?
**A.** >16 µg/mL

**Q.** And the “MIC (C: E. faecalis ATCC29212)” value (E. faecalis ATCC29212)?
**A.** 1 µg/mL (≈ 0.957 µM)

**Q.** And the “MIC (E: H. influenzae ATCC49247)” value (H. influenzae ATCC49247)?
**A.** 16 µg/mL (≈ 15.3 µM)

**Q.** What about the “MIC (B: S. aureus ATCC29213)” value (S. aureus ATCC29213) of the same molecule?
**A.** 2 µg/mL (≈ 1.91 µM)

**Q.** What about the “MIC (D: S. pneumoniae ATCC49619)” value (S. pneumoniae ATCC49619) of the same molecule?
**A.** 0.12 µg/mL (≈ 0.115 µM)

**Q.** With `CC[C@H]1OC(=O)[C@H](C)C(=O)[C@H](C)[C@@H](O[C@@H]2O[C@H](C)C[C@H](N(C)C)[C@H]2O)[C@](C)(OC(=O)NN2CCC(c3ccccc3)CC2)C[C@@H](C)C(=O)[C@H](C)[C@H]2NC(=O)O[C@@]21C` [Compound 807] as the molecule, how does the MIC (E. coli OC2605; Escherichia coli) read?
**A.** > 16 µg/mL

**Q.** And the MIC (E. faecalis ATCC29212; Enterococcus faecalis)?
**A.** 1 µg/mL (≈ 1.25 µM)

**Q.** What about the MIC (H. influenzae ATCC49247; Haemophilus influenzae, read-out: MIC (E: H. influenzae ATCC49247)) of the same molecule?
**A.** 4 µg/mL (≈ 4.99 µM)

**Q.** And the MIC (S. aureus ATCC29213; Staphylococcus aureus, read-out: MIC (B: S. aureus ATCC29213))?
**A.** 2 µg/mL (≈ 2.5 µM)

**Q.** What about the MIC (S. pneumoniae ATCC49619; Streptococcus pneumoniae, read-out: MIC (D: S. pneumoniae ATCC49619)) of the same molecule?
**A.** 0.12 µg/mL (≈ 0.15 µM)
